In patent publication US8193225B2, “Isoxazole amides, derivatives and methods of chemical induction of neurogenesis” (priority 2006, dated 2012):
Entries after “also recorded” stand apart in the source; their conditions may differ.

Experiments:
HCN cells [1] = assay: glial (astrocyte, oligodendrocyte) differentiation of HCN cells/NPCs; format: cell-based, rat; conditions: 4 d cultures
[2] = system: human CD133(+) brain tumor stem cells (BTSCs); assay: RT-PCR and protein blotting of gene expression in BTSCs; format: cell-based
Source text: FIGS. 9A-H—Isoxazoles specifically target the CD133(+) glioblastoma cancer stem cell to adopt a neuronal fate program. […] (FIG. 9B) BTSCs cultured with DMSO (vehicle) (1% vol./vol.). (FIG. 9D) Isx-9-treated BTSCs stained with neuronal markers Tuj1 (red) and Map2ab (green), Dapi-stained nuclei is blue. Scale bar=25 μm. […] (FIGS. 9G and 9H) RT-PCR and protein blotting analysis of gene expression in Isx-9-treated BTSCs. […] GAPDH is used as a normalization control.
This activity remained following addition of FGF/EGF without additional Isx-9 addition.

NeuroD-luciferase = NeuroD-luciferase reporter in BTSCs; format: cell-based, human; conditions: after 24 hours, compared to vehicle
Procedure: (§1) CD133+ glioblastoma brain tumor stem cells (BTSCs) from an explanted human tumor specimen were treated with 20 μM Isx-9 (FIG. 9C) or vol/vol DMSO (vehicle) control (FIG. 9B).

[3] = system: MEF2 reporter gene (3XMRE-luc); assay: MEF2 reporter gene (3XMRE-luc) assay in HCN cells; format: cell-based, rat; conditions: HCN cells/NPCs, versus vehicle
[4] = system: human CD133(+) brain tumor stem cells (BTSCs); assay: differentiation of CD133+ brain tumor stem cells (BTSCs); format: cell-based; conditions: 20 μM, within 4 days
Procedure: as §1

[5] = system: RFP-labeled human CD133(+) BTSCs; assay: transplantation of pre-treated RFP-labeled BTSCs into striatum of NOD/scid mice; format: in vivo
Procedure: BTSC transplantation was performed by stereotactic surgery into the left striatum (coordinates from Bregma AP −0 mm, ML +2.5 mm, DV −3.5 mm) with a 33-gauge Hamilton syringe at a flow rate of 30,000 cells/10 minutes.

HCN cells [6] = assay: RT-PCR and protein blotting of gene expression in HCN cells; format: cell-based, rat
P19CL6 cells = assay: neuronal differentiation of P19CL6 cells; format: cell-based, mouse; conditions: 4 d cultures
Procedure: Neural stem cell culture, in vitro differentiation, and CaMK inhibitor studies. The hippocampal neural stem/progenitor (NSC) line used in this study (HCN cells) were originally isolated from adult (8-10 wks old) female Fisher 344 rats and have been characterized previously (Gage et al., 1995; Palmer et al., 1997). HCN cells were cultured in DMEM:F12 (Omega Scientific) with N2 supplement (Invitrogen) and basic fibroblast growth factor (20 ng/ml FGF-2) (PeproTech). The mouse whole brain neural stem/progenitors (MWB) were derived from adult (8-10 wks old) C57BL/6 mice that have been characterized previously (Ray and Gage, 2006). The P19CL6 cells is a sub-line of P19EC cells, originally generated by the late Dr. Habara-Ohkubo (Habara-Ohkubo, 1996), were grown in MEM-α (Invitrogen) containing 10% fetal bovine serum (Omega). HCN cells or MWB neural progenitors were trypsinized and plated into N2 medium (Invitrogen) containing FGF-2 (HCN cells) or FGF-2/EGF/heparin (MWB) overnight, and switched to fresh N2 medium without FGF-2 and Isx-9 (20 μM for HCN cells and 5 μM for MWB) was added for 4 d. To test if Isx-9 could block competing astrocyte or oligodendrocyte differentiation, standard gliogenic conditions were used as described previously (Hsieh et al., 2004). […]

In the case of `O=C(NC1CC1)c1cc(-c2cccs2)on1` [Isx-9, N-cyclopropyl-5-(thiophen-2-yl)isoxazole-3-carboxamide], the “gliogenesis / glial differentiation” value (HCN cells [1]) is reported as “dominantly blocks gliogenesis”, the “CD133 expression in BTSCs” value [2] is reported as “downregulated” and the “HDAC-4 and -5 protein in BTSCs” value [2] is reported as “remain relatively unchanged”. For the same molecule, the “NRSF expression in BTSCs” value [2] was “downregulated”, the “NeuroD expression in BTSCs” value ([2]; 2 days) was “Up-regulation of NeuroD” and the “overall levels of neuronal proteins (βTujIII, GluR2) in BTSCs” value ([2]; versus control) was “do not significantly differ”. For the same molecule, the “activation of NeuroD-luciferase in BTSCs” value (NeuroD-luciferase) was “Dose-dependent activation”, the “activation of MEF2 reporter gene (3XMRE-luc) / MEF2 promoter” value [3] was “Dose-dependent activation” and the “neuronal differentiation of BTSCs” value [4] was “triggers a pro neuronal-differentiation effect; also recorded: leads to more differentiated (adherent and phase-dark with neuronal-like processes) cells”. The “tumor-initiating ability of BTSCs” value ([5]; 7-day exposure in vitro (20 μM) before transplantation) was “dramatically reduces tumor-initiating ability”, the “number of RFP-labeled BTSCs in the striatum” value ([5]; after 1 month) was “significant reduced the number of RFP-labeled BTSCs in the striatum” and the “MEF2 mRNA levels” value (HCN cells [6]; 2- and 4-days, compared to vehicle) was “up-regulated”. The “expression of SOX2” value (HCN cells [6]; HCN cells) was “decreased expression”, the “neuronal protein expression (protein blotting)” value (HCN cells [6]; HCN cells/NPCs) was “increased Tuj1 protein” and the “MEF2A and MEF2C protein levels” value (HCN cells [6]; protein blotting time-course, up to 64 hours) was “unchanged”. The “neuronal differentiation of P19CL6 / P19 embryonal carcinoma cells” value (P19CL6 cells) was “promotes neuronal differentiation”.
